Measured values reported in ChEMBL document CHEMBL1126190, “3-[4-[1-(6-Fluorobenzo[b]thiophen-3-yl)-4-piperazinyl]butyl]- 2,5,5-trimethyl-4-thiazolidinone: a new atypical antipsychotic agent for the treatment of schizophrenia” (J Med Chem, 1992).
pKi: −log10 of the molar value.

Tests used:
[1] = target: Serotonin 2 (5-HT2) receptor (Rattus norvegicus, UniProt P30994+P08909+P14842); assay: Compound was evaluated for in vitro binding affinity towards serotonin 5-hydroxytryptamine 2 receptor in rat cortex using [3H]- spiperone as radioligand
Rattus norvegicus [2] = assay: Compound was evaluated for pole-climb avoidance in rat after peroral administration.; format: functional; conditions: po
Mus musculus [3] = assay: Compound was evaluated for inhibition of apomorphine-induced climbing in mouse after intraperitoneal administration.; format: functional; conditions: ip
Mus musculus [4] = assay: Compound was evaluated for inhibition of apomorphine-induced climbing in mouse after peroral administration.; format: functional; conditions: po
D(1A) dopamine receptor = D(1A) dopamine receptor (Rattus norvegicus, UniProt P18901); assay: Compound was evaluated for in vitro binding affinity towards Dopamine receptor D1 in striatum using [3H]- SCH 23390 as radioligand; format: tissue-based
Sequence of D(1A) dopamine receptor (P18901 whole entry): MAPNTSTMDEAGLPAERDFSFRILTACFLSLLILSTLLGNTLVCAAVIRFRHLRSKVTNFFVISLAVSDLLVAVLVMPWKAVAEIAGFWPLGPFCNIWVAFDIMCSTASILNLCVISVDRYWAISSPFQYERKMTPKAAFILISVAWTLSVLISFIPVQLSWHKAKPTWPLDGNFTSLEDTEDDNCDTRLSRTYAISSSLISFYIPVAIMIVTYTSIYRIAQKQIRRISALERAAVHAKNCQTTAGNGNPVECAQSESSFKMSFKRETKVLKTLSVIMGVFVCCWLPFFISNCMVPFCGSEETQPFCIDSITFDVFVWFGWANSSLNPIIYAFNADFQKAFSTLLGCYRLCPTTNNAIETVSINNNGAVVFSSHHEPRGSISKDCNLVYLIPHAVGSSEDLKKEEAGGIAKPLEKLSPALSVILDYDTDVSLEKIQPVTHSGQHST

[5] = target: T1, 5-hydroxytryptamine receptor 1A (Rattus norvegicus, UniProt P19327); assay: Compound was evaluated for in vitro binding affinity towards serotonin 5-hydroxytryptamine 1A receptor receptor in rat hippocampus using [3H]8-OH-DPAT as radioligand; format: tissue-based
T1 sequence (P19327 whole entry): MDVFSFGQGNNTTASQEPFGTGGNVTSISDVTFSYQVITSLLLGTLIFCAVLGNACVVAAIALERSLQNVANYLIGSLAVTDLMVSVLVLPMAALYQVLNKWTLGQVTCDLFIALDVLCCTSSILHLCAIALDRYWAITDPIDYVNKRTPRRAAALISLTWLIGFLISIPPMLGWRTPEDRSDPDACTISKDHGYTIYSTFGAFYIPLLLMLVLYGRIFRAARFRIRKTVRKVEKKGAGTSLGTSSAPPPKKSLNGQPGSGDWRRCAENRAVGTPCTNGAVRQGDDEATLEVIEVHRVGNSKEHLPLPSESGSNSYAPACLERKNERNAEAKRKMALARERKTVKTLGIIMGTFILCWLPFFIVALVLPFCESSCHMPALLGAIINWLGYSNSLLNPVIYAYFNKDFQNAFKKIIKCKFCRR

Rattus norvegicus [6] = assay: Compound was evaluated for inhibition of apomorphine-induced stereotypy behavior in rats after intraperitoneal administration.; format: functional; conditions: ip
Rattus norvegicus [7] = assay: Compound was evaluated for intracranial self-stimulation in rat after intraperitoneal administration.; format: functional; conditions: ip
Rattus norvegicus [8] = assay: Compound was evaluated for pole-climb avoidance (escape failures) in rat after peroral administration.; format: functional; conditions: po

CC1SC(C)(C)C(=O)N1CCCCN1CCN(c2csc3cc(F)ccc23)CC1 (stereo unspecified)
Ki [1]: 20 nM
ED50 (Rattus norvegicus [2]): 5.46 mg/kg
ED50 (Mus musculus [3]): 2.5 mg/kg
ED50 (Mus musculus [4]): 15.4 mg/kg
pKi (D(1A) dopamine receptor): 5.56
pKi [5]: 7.40
ED50 (Rattus norvegicus [6]): 61.4 mg/kg
ED50 (Rattus norvegicus [7]): 4.7 mg/kg
ED50 (Rattus norvegicus [8]): > 20 mg/kg

CN1CCN(C2=Nc3cc(Cl)ccc3Nc3ccccc32)CC1 [CLOZAPINE]
ED50 (Rattus norvegicus [2]): 12.7 mg/kg
ED50 (Rattus norvegicus [6]): > 40 mg/kg
ED50 (Rattus norvegicus [8]): 33.1 mg/kg

O=C(CCCN1CCC(O)(c2ccc(Cl)cc2)CC1)c1ccc(F)cc1 [HALOPERIDOL]
ED50 (Rattus norvegicus [2]): 1.1 mg/kg
ED50 (Rattus norvegicus [6]): 0.576 mg/kg
ED50 (Rattus norvegicus [7]): 0.077 mg/kg
ED50 (Rattus norvegicus [8]): 14.1 mg/kg
